In experiment [1] the target is T1, Ferrochelatase, mitochondrial (Homo sapiens) (UniProt P22830).
T1 sequence (whole entry): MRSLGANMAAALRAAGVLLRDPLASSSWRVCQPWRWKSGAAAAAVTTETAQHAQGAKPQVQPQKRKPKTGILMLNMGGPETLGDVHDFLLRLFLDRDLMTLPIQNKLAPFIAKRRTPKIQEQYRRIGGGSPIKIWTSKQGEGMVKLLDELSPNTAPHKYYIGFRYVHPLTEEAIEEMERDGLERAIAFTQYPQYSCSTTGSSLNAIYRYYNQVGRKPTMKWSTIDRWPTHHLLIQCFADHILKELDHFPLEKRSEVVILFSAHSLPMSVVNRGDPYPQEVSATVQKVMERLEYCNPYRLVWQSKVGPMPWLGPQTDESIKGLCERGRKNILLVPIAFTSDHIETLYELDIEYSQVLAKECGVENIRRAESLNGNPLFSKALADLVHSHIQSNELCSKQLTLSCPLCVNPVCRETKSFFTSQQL
The following applies: at 10 µM.
Description: Compound was evaluated for the inhibition of human FECH at 10uM

In experiment [2] the target is T2, Porphobilinogen deaminase (Homo sapiens) (UniProt P08397).
T2 sequence (whole entry): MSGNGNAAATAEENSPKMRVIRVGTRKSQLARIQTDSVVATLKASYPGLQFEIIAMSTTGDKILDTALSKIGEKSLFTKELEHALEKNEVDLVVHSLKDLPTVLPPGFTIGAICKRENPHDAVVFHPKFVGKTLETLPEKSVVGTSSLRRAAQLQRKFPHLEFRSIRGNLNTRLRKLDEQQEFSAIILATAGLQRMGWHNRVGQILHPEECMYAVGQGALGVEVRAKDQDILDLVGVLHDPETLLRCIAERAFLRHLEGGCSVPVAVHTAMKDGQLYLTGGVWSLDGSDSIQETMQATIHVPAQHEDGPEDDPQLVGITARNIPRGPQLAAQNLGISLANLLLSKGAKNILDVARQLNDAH
Particulars: at 100 µM.
Description: Compound was evaluated for the inhibition of human HMBS at 100uM

Structures are written as SMILES. The source made the active and inactive calls. How the calls were made is not given here.

With `COc1ccc(Cl)cc1NC(=O)CN(C)C(=O)c1cnn(-c2ccccc2)n1`, the inhibition result in experiment [1] and in experiment [2] was “inactive” in each case.
`CC1CCCN(C(=O)C(C)Nc2cc(Cl)ccc2N2CCOCC2)C1` (configuration not stated): the inhibition entry in experiment [1] and in experiment [2] was “inactive” throughout.
`COc1cccn2c(C(=O)N3CCCCC3)c(C(F)(F)F)nc12`: the inhibition result in experiment [1] and in experiment [2] was “inactive” each time.
Consider `O=C(Nc1ccnc(-c2cccnc2)n1)c1cc(C(F)(F)F)cc(C(F)(F)F)c1`, for which the inhibition result in experiment [1] and in experiment [2] was “inactive” throughout.
For the compound `CNC(=O)CNc1nc(-c2ccccn2)nc2scc(-c3ccccc3)c12`, the inhibition entry in experiment [1] and in experiment [2] was “inactive” in each case.
`c1ccc(-c2cc(N3CCCCC3)c3ccccc3n2)nc1`: the inhibition entry in experiment [1] and in experiment [2] was “inactive” each time.
Regarding `Cc1cc(Nc2ccncc2)n2nc(C)c(-c3ccccc3Cl)c2n1`, the inhibition result in experiment [1] and in experiment [2] was “inactive” each time.
For the compound `CN1CCN(CCCOc2ncc(Nc3ncc(-c4ccc(C(F)(F)F)c(F)c4)nc3C(N)=O)cn2)CC1`, the inhibition result in experiment [1] and in experiment [2] was “inactive” each time.
`CS(=O)(=O)Cc1nc2ccccc2oc1=O`: the inhibition entry in experiment [1] and in experiment [2] was “inactive” throughout.
For `CN1CCN(S(=O)(=O)c2ccc(-c3ccc4c(Nc5ncc(Cl)cn5)ccnc4c3)cc2)CC1`, the inhibition result in experiment [1] and in experiment [2] was “inactive” in each case.
In the case of `O=C(NC1CCCCC1)N1CCN(Cc2ccc3c(c2)OCO3)CC1`, the inhibition result in experiment [1] and in experiment [2] was “inactive” in each case.
As for `COc1cccc2c(C)nc(N=C(N)N)nc12`, the inhibition result in experiment [1] and in experiment [2] was “inactive” each time.
For `FC(F)(F)c1cccc(-c2nc3c(NCc4ccncc4)nccc3[nH]2)c1`, the inhibition entry in experiment [1] and in experiment [2] was “inactive” each time.
For the compound `COc1ccc(-c2nnc3ccc(-c4cccc(C(C)C)c4)cn23)cc1OC`, the inhibition entry in experiment [1] and in experiment [2] was “inactive” each time.
Turning to `CC(C)(C)n1nc(Cc2cccc3ccccc23)c2c(N)ncnc21`, the inhibition result in experiment [1] and in experiment [2] was “inactive” throughout.
For the compound `Nc1ncc(-c2cn[nH]c2)cc1-c1nc2cc(Cl)cnc2[nH]1`, the inhibition result in experiment [1] and in experiment [2] was “inactive” in each case.
For `CCCCc1ccc(NC(=O)Nc2ccc(O[C@H]3CCCC[C@@H]3N(C)c3ccccc3)c(F)c2)cc1`, the inhibition result in experiment [1] and in experiment [2] was “inactive” each time.
`COc1cc2ncnc(NC3CCN(Cc4ccccc4)CC3)c2cc1OC`: the inhibition result in experiment [1] and in experiment [2] was “inactive” throughout.
As for `CC1(C)Cc2c(c(N3CCOCC3)nc3snc(Br)c23)CO1`, the inhibition entry in experiment [1] and in experiment [2] was “inactive” in each case.
In the case of `Clc1cccc(C(c2ccc(CN3CCNCC3)cc2)n2ccnc2)c1` (configuration not stated), the inhibition entry in experiment [1] and in experiment [2] was “inactive” in each case.
Take `CCC(C)NC(=O)c1ccc(NC(=O)C2(c3ccccc3)CCCC2)cc1` (configuration not stated): the inhibition result in experiment [1] and in experiment [2] was “inactive” in each case.
In the case of `CCOc1ccccc1C(=O)Nc1cccc(-c2nc3ncccn3c2C)c1`, the inhibition entry in experiment [1] and in experiment [2] was “inactive” throughout.
With `OC[C@H]1O[C@@H](n2c3ccc(Cl)cc3c3c(-c4cc5ccccc5o4)ncnc32)C(O)[C@H]1O` (some centres not stated), the inhibition entry in experiment [1] and in experiment [2] was “inactive” throughout.
Consider `O=C(NCc1ccoc1)N1CCN(Cc2ccc3c(c2)OCO3)CC1`, for which the inhibition entry in experiment [1] and in experiment [2] was “inactive” throughout.
As to `CCC(=O)Nc1ccccc1C(=O)Nc1ccccn1`, the inhibition result in experiment [1] and in experiment [2] was “inactive” each time.
Take `CCOc1ccccc1NC(C)C(=O)Nc1cc(C(F)(F)F)ccc1N1CCOCC1` (configuration not stated): the inhibition result in experiment [1] and in experiment [2] was “inactive” throughout.
With `CNc1snc(C)c1C(=O)NCCOc1ccc(OC)cc1`, the inhibition result in experiment [1] and in experiment [2] was “inactive” throughout.
Take `Cc1nn2c(=O)c3c([nH]c2c1-c1ccc(Cl)cc1)CCCC3`: the inhibition entry in experiment [1] and in experiment [2] was “inactive” in each case.
As to `Nc1cccnc1Nc1ccc(Cl)cc1`, the inhibition result in experiment [1] and in experiment [2] was “inactive” each time.
Regarding `O=C(NCCN1CCCC1)c1cc(NCCCCN2CCC(F)(F)CC2)nc2ccc(Cl)cc12`, the inhibition result in experiment [1] and in experiment [2] was “inactive” in each case.
On to `CN1CCN(c2cc(-c3ccc(F)cc3)nc(-c3ccncc3)n2)CC1`, for which the inhibition entry in experiment [1] and in experiment [2] was “inactive” each time.
Take `Cc1c[nH]c(CCNC(=O)c2cc(-c3ccc(Cl)cc3)cs2)n1`: the inhibition result in experiment [1] and in experiment [2] was “inactive” throughout.
On to `Cc1nn2c(O)c3c(nc2c1-c1ccc(F)cc1)CCCC3`, for which the inhibition entry in experiment [1] and in experiment [2] was “inactive” each time.
As to `O=C(NCCN1CCCC1)c1cc(NCCN2CCOCC2)nc2ccc(Cl)cc12`, the inhibition entry in experiment [1] and in experiment [2] was “inactive” each time.
For the compound `Cc1cc(C)cc(COc2ccc3c(C)c(CCC(=O)O)c(=O)oc3c2C)c1`, the inhibition result in experiment [1] and in experiment [2] was “inactive” each time.
As for `Cc1nn(C)cc1C(C)Nc1nncc(-c2ccc(C(F)(F)F)cc2)n1` (configuration not stated), the inhibition entry in experiment [1] and in experiment [2] was “inactive” each time.
In the case of `Cc1noc(C)c1COc1cccc(C(=O)N=c2[nH]cccc2C)c1`, the inhibition result in experiment [1] and in experiment [2] was “inactive” throughout.
Consider `O=C1O[C@@H](CO)CN1c1cc(F)c(C2=CCN(Cc3ccccc3)CC2)c(F)c1`, for which the inhibition entry in experiment [1] and in experiment [2] was “inactive” each time.
`O=C(Nc1ccccc1-c1nc2c(C(=O)O)cccc2o1)c1ccccc1`: the inhibition result in experiment [1] and in experiment [2] was “inactive” in each case.
For the compound `COc1cncc(-c2cncc(N3CCN(c4ccncc4)CC3)n2)c1`, the inhibition result in experiment [1] and in experiment [2] was “inactive” each time.
`O=C(c1ccc(NCCO)cc1)C1C[C@H]1c1ccc(Cl)cc1` (some centres not stated): the inhibition result in experiment [1] and in experiment [2] was “inactive” throughout.
For the compound `O=C(C1CCN(c2nnc(-n3cccc3)s2)CC1)N1CCC(Cc2ccccc2)CC1`, the inhibition entry in experiment [1] and in experiment [2] was “inactive” in each case.
For `Cc1cccc(C(=O)Nc2ccnc(N(C)C3CCN(CC(C)C)CC3)c2)c1`, the inhibition entry in experiment [1] and in experiment [2] was “inactive” each time.
As to `CC(=O)Nc1ccc(NC(=O)c2cc(-c3cc(Cl)ccc3O)n[nH]2)cc1`, the inhibition result in experiment [1] and in experiment [2] was “inactive” each time.
As for `O=C(Nc1nc(-c2ccccn2)cs1)C1CC1c1ccccc1F` (configuration not stated), the inhibition entry in experiment [1] and in experiment [2] was “inactive” throughout.
Regarding `Cc1nn(C(=O)Nc2cccc(C(F)(F)F)c2)c(C)c1Sc1ncccn1`, the inhibition entry in experiment [1] and in experiment [2] was “inactive” each time.

These data come from ChEMBL document CHEMBL3987221, “The Australian National University Dept Of Immunology Pathogen Box Compounds Screened” (2018).
